Test results reported in publication PMC8898184 (Drug Design, Development and Therapy, 2022).

Target: T1, Bovine β-lactoglobulin (BLG) (Bos taurus, UniProt P02754)
T1 sequence (P02754 17-178): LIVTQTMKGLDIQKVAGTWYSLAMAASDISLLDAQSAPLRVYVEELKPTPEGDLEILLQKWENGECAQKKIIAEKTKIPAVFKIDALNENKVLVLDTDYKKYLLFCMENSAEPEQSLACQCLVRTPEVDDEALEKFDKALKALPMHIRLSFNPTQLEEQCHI
Test: tryptophan fluorescence quenching
Format: binding
Details: PBS, pH 7.4, 37 °C; 5 μM BLG; double-log

**Q.** How did the “Kb (×10^3 M^-1)” value turn out when `CC(=O)Oc1ccccc1C(=O)O` [aspirin] was run?
**A.** 2.051 × 10^3 M^-1
